# In PubChem BioAssay (NCI):
#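 How tested: cells in 96-well plates exposed to compound for 48 hours at five concentrations. Abbreviation: GI50, concentration required for 50% inhibition of growth. TGI denotes the concentration required for complete inhibition of growth.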
# Columns and labels:
# Assay in all cases: NCI-60 cell line screen, 48 h
# SK-MEL-28 melanoma = test system: SK-MEL-28 melanoma
# MCF7 breast = test system: MCF7 breast
# NCI-H23 lung = test system: NCI-H23 lung
# UO-31 renal = test system: UO-31 renal
# MALME-3M melanoma = test system: MALME-3M melanoma
# NCI-H522 lung = test system: NCI-H522 lung
# TK-10 renal = test system: TK-10 renal
# MDA-MB-231 breast = test system: MDA-MB-231 breast
# DU-145 prostate = test system: DU-145 prostate
# UACC-62 melanoma = test system: UACC-62 melanoma
# ACHN renal = test system: ACHN renal
# BT-549 breast = test system: BT-549 breast
# SNB-19 CNS = test system: SNB-19 CNS
# 786-0 renal = test system: 786-0 renal
# SN12C renal = test system: SN12C renal
# OVCAR-8 ovarian = test system: OVCAR-8 ovarian
# HOP-62 NSCLC = test system: HOP-62 NSCLC
# PC-3 prostate = test system: PC-3 prostate
# MOLT-4 leukemia = test system: MOLT-4 leukemia
# NCI-H460 lung = test system: NCI-H460 lung
# HOP-92 NSCLC = test system: HOP-92 NSCLC
# COLO 205 colon = test system: COLO 205 colon
# KM12 colon = test system: KM12 colon
# U251 CNS = test system: U251 CNS
# HT29 colon = test system: HT29 colon
# SR leukemia = test system: SR leukemia
# SF-539 CNS = test system: SF-539 CNS
# CCRF-CEM leukemia = test system: CCRF-CEM leukemia
# RXF 393 renal = test system: RXF 393 renal
# UACC-257 melanoma = test system: UACC-257 melanoma
# OVCAR-5 ovarian = test system: OVCAR-5 ovarian
# MDA-MB-435 = test system: MDA-MB-435
# SF-295 CNS = test system: SF-295 CNS
# OVCAR-4 ovarian = test system: OVCAR-4 ovarian
# SW-620 colon = test system: SW-620 colon
# EKVX NSCLC = test system: EKVX NSCLC
# T-47D breast = test system: T-47D breast
# RPMI-8226 leukemia = test system: RPMI-8226 leukemia
# K-562 leukemia = test system: K-562 leukemia
# SK-OV-3 ovarian = test system: SK-OV-3 ovarian
# A549 NSCLC = test system: A549 NSCLC
# OVCAR-3 ovarian = test system: OVCAR-3 ovarian
# SK-MEL-2 melanoma = test system: SK-MEL-2 melanoma
# HS 578T breast = test system: HS 578T breast
# IGROV1 ovarian = test system: IGROV1 ovarian
# NCI/ADR-RES ovarian = test system: NCI/ADR-RES ovarian
# NCI-H226 lung = test system: NCI-H226 lung
# HL-60(TB) leukemia = test system: HL-60(TB) leukemia
# HCT-15 colon = test system: HCT-15 colon
# M14 melanoma = test system: M14 melanoma
# HCT-116 colon = test system: HCT-116 colon
# A498 renal = test system: A498 renal
# SF-268 CNS = test system: SF-268 CNS
# SNB-75 CNS = test system: SNB-75 CNS
# HCC-2998 colon = test system: HCC-2998 colon
# SK-MEL-5 melanoma = test system: SK-MEL-5 melanoma
# LOX IMVI melanoma = test system: LOX IMVI melanoma
compound,measurement,setting,value
CCN1CCN(c2nc(C)cc(N(CCCNc3ccnc4cc(Cl)ccc34)Cc3ccco3)n2)CC1,GI50,SK-MEL-28 melanoma,1.82 µM
same,TGI,SK-MEL-28 melanoma,3.6 µM
same,GI50,MCF7 breast,2.98 µM
same,TGI,MCF7 breast,14.8 µM
same,GI50,NCI-H23 lung,9.9 µM
same,TGI,NCI-H23 lung,27 µM
same,GI50,UO-31 renal,1.83 µM
same,TGI,UO-31 renal,4.3 µM
same,GI50,MALME-3M melanoma,1.89 µM
same,TGI,MALME-3M melanoma,3.67 µM
same,GI50,NCI-H522 lung,3.12 µM
same,TGI,NCI-H522 lung,12 µM
same,GI50,TK-10 renal,2.13 µM
same,TGI,TK-10 renal,4.9 µM
same,GI50,MDA-MB-231 breast,3.18 µM
same,TGI,MDA-MB-231 breast,12.4 µM
same,GI50,DU-145 prostate,5.89 µM
same,TGI,DU-145 prostate,19.7 µM
same,GI50,UACC-62 melanoma,1.97 µM
same,TGI,UACC-62 melanoma,3.97 µM
same,GI50,ACHN renal,2.58 µM
same,TGI,ACHN renal,6.99 µM
same,GI50,BT-549 breast,2.03 µM
same,TGI,BT-549 breast,5.99 µM
same,GI50,SNB-19 CNS,4.78 µM
same,TGI,SNB-19 CNS,17.5 µM
same,GI50,786-0 renal,1.85 µM
same,TGI,786-0 renal,4.15 µM
same,GI50,SN12C renal,5.55 µM
same,TGI,SN12C renal,19.5 µM
same,GI50,OVCAR-8 ovarian,4.08 µM
same,TGI,OVCAR-8 ovarian,19.5 µM
same,GI50,HOP-62 NSCLC,3.22 µM
same,TGI,HOP-62 NSCLC,14.1 µM
same,GI50,PC-3 prostate,6.87 µM
same,TGI,PC-3 prostate,22 µM
same,GI50,MOLT-4 leukemia,3.14 µM
same,TGI,MOLT-4 leukemia,16.8 µM
same,GI50,NCI-H460 lung,3.73 µM
same,TGI,NCI-H460 lung,12.9 µM
same,GI50,HOP-92 NSCLC,2.26 µM
same,TGI,HOP-92 NSCLC,6.72 µM
same,GI50,COLO 205 colon,1.85 µM
same,TGI,COLO 205 colon,3.98 µM
same,GI50,KM12 colon,5.07 µM
same,TGI,KM12 colon,19.4 µM
same,GI50,U251 CNS,2.41 µM
same,TGI,U251 CNS,6.26 µM
same,GI50,HT29 colon,2.35 µM
same,TGI,HT29 colon,8.72 µM
same,GI50,SR leukemia,2.08 µM
same,TGI,SR leukemia,5.73 µM
same,GI50,SF-539 CNS,1.75 µM
same,TGI,SF-539 CNS,3.46 µM
same,GI50,CCRF-CEM leukemia,3.51 µM
same,TGI,CCRF-CEM leukemia,12.2 µM
same,GI50,RXF 393 renal,1.98 µM
same,TGI,RXF 393 renal,4.23 µM
same,GI50,UACC-257 melanoma,1.95 µM
same,TGI,UACC-257 melanoma,3.79 µM
same,GI50,OVCAR-5 ovarian,7.9 µM
same,TGI,OVCAR-5 ovarian,28.4 µM
same,GI50,MDA-MB-435,1.7 µM
same,TGI,MDA-MB-435,3.24 µM
same,GI50,SF-295 CNS,1.81 µM
same,TGI,SF-295 CNS,3.63 µM
same,GI50,OVCAR-4 ovarian,3.99 µM
same,TGI,OVCAR-4 ovarian,20.7 µM
same,GI50,SW-620 colon,3.12 µM
same,TGI,SW-620 colon,13 µM
same,GI50,EKVX NSCLC,7.67 µM
same,TGI,EKVX NSCLC,25.3 µM
same,GI50,T-47D breast,1.97 µM
same,TGI,T-47D breast,5.55 µM
same,GI50,RPMI-8226 leukemia,2.31 µM
same,TGI,RPMI-8226 leukemia,5.77 µM
same,GI50,K-562 leukemia,2.3 µM
same,TGI,K-562 leukemia,10.4 µM
same,GI50,SK-OV-3 ovarian,7.82 µM
same,TGI,SK-OV-3 ovarian,30.7 µM
same,GI50,A549 NSCLC,4.51 µM
same,TGI,A549 NSCLC,16.5 µM
same,GI50,OVCAR-3 ovarian,4.29 µM
same,TGI,OVCAR-3 ovarian,20.3 µM
same,GI50,SK-MEL-2 melanoma,1.94 µM
same,TGI,SK-MEL-2 melanoma,3.92 µM
same,GI50,HS 578T breast,2.87 µM
same,TGI,HS 578T breast,9.97 µM
same,GI50,IGROV1 ovarian,3.38 µM
same,TGI,IGROV1 ovarian,15.4 µM
same,GI50,NCI/ADR-RES ovarian,4.42 µM
same,TGI,NCI/ADR-RES ovarian,19.7 µM
same,GI50,NCI-H226 lung,15.3 µM
same,TGI,NCI-H226 lung,29.2 µM
same,GI50,HL-60(TB) leukemia,2.11 µM
same,TGI,HL-60(TB) leukemia,5.08 µM
same,GI50,HCT-15 colon,2.34 µM
same,TGI,HCT-15 colon,11.6 µM
same,GI50,M14 melanoma,1.89 µM
same,TGI,M14 melanoma,3.63 µM
same,GI50,HCT-116 colon,2.05 µM
same,TGI,HCT-116 colon,10.9 µM
same,GI50,A498 renal,6.53 µM
same,TGI,A498 renal,49.1 µM
same,GI50,SF-268 CNS,4.31 µM
same,TGI,SF-268 CNS,20.6 µM
same,GI50,SNB-75 CNS,1.7 µM
same,TGI,SNB-75 CNS,7.55 µM
same,GI50,HCC-2998 colon,2.05 µM
same,TGI,HCC-2998 colon,5.89 µM
same,GI50,SK-MEL-5 melanoma,1.81 µM
same,TGI,SK-MEL-5 melanoma,3.3 µM
same,GI50,LOX IMVI melanoma,1.76 µM
same,TGI,LOX IMVI melanoma,3.75 µM
